The record followed here is patent US4861760A, “Ophthalmological composition of the type which undergoes liquid-gel phase transition” (Merck & Co., Inc., priority 1985, dated 1989).

The test system of series [1] is eye. The note with it: rabbit, in vivo.
A short description of series [2]: compatibility / gelling effect of ingredients in Gelrite solution. In kind it is physicochemical. The note with it: 0.1 mg/ml added; can be eliminated by adding a small amount of acetic acid.

Take gellan gum: the eye irritation entry in series [1] is given as “not regarded as an eye irritant”. With benzalkonium chloride, the “gelling effect in a Gelrite solution” value in series [2] is “slight gelling effect”.
